Key:
[1] = test system: soybean; experiment: Test B pre/postemergence soybean; format: in vivo, Glycine max
Summary of the method: (§1)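 Response is a visual 0-to-10 score relative to untreated plants, where 0 means no effect and 10 means complete control, taken twelve to sixteen days after application. Treatments went onto soil at planting and onto foliage of 1- to 4-leaf plants, using a surfactant-containing non-phytotoxic solvent.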

[2] = test system: surinam grass; experiment: Test B pre/postemergence surinam grass; format: in vivo, Brachiaria decumbens
Summary of the method: as §1

[3] = test system: duck salad; experiment: Test B flood test duck salad; format: in vivo, Heteranthera limosa
Summary of the method: (§2)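 Each value is a visual injury score relative to controls, with 10 meaning complete control and 0 no effect. Evaluation took place twelve to sixteen days after the 2-leaf-stage plants were treated and kept in the greenhouse.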

[4] = test system: wild oat; experiment: Test B pre/postemergence wild oat; format: in vivo, Avena fatua
Summary of the method: as §1

[5] = test system: blackgrass; experiment: Test B pre/postemergence blackgrass; format: in vivo, Alopecurus myosuroides
Summary of the method: as §1

[6] = test system: velvetleaf; experiment: Test B pre/postemergence velvetleaf; format: in vivo, Abutilon theophrasti
Summary of the method: as §1

[7] = test system: rape; experiment: Test B pre/postemergence rape; format: in vivo, Brassica napus
Summary of the method: as §1

[8] = test system: morningglory; experiment: Test B pre/postemergence morningglory; format: in vivo, Ipomoea hederacea
Summary of the method: as §1

[9] = test system: giant foxtail; experiment: Test B pre/postemergence giant foxtail; format: in vivo, Setaria faberii
Summary of the method: as §1

[10] = test system: purple nutsedge; experiment: Test B pre/postemergence purple nutsedge; format: in vivo, Cyperus rotundus
Summary of the method: as §1

[11] = test system: rice; experiment: Test B flood test rice; format: in vivo, Oryza sativa
Summary of the method: as §2

[12] = test system: bedstraw; experiment: Test B pre/postemergence bedstraw; format: in vivo, Galium aparine
Summary of the method: as §1

[13] = test system: pigweed; experiment: Test B pre/postemergence pigweed; format: in vivo, Amaranthus retroflexus
Summary of the method: as §1

[14] = test system: crabgrass; experiment: Test B pre/postemergence crabgrass; format: in vivo, Digitaria sanguinalis
Summary of the method: as §1

[15] = test system: bamyardgrass; experiment: Test B flood test barnyardgrass; format: in vivo, Echinochloa crus-galli
Summary of the method: as §2

[16] = test system: smallflower flatsedge; experiment: Test B flood test smallflower flatsedge; format: in vivo, Cyperus difformis
Summary of the method: as §2

[17] = test system: corn; experiment: Test B pre/postemergence corn; format: in vivo, Zea mays
Summary of the method: as §1

[18] = test system: cocklebur; experiment: Test B pre/postemergence cocklebur; format: in vivo, Xanthium strumarium
Summary of the method: as §1

[19] = test system: sugar beet; experiment: Test B pre/postemergence sugar beet; format: in vivo, Beta vulgaris
Summary of the method: as §1

[20] = test system: wheat; experiment: Test B pre/postemergence wheat; format: in vivo, Triticum aestivum
Summary of the method: as §1

[21] = Preemergence, Rate 31 g/ha, visual rating, scale 0 to 10 (0 no effect, 10 complete control)
[22] = Preemergence, Rate 62 g/ha, scale of 0 to 10 where 0 is no effect and 10 is complete control
[23] = Preemergence, Rate 250 g/ha, scale of 0 to 10 where 0 is no effect and 10 is complete control
[24] = Rate 62 g/ha, Postemergence, scale of 0 to 10 where 0 is no effect and 10 is complete control
[25] = Rate 125 g/ha, Postemergence, scale 0 to 10
[26] = Rate 125 g/ha, Preemergence, scale of 0 to 10 where 0 is no effect and 10 is complete control
[27] = Rate 31 g/ha, Postemergence, scale 0 to 10
[28] = Rate 62 g/ha, headed Pre-emergence (flood test species), scale 0 to 10 (0 no effect, 10 complete control)
[29] = Rate 250 g/ha, Pre-emergence, flood-test species, scale 0 to 10, 0 is no effect, 10 is complete control

CC(C)N(C(=O)n1oc(=O)n(CC#C[Si](C)(C)C)c1=O)c1ccc(F)cc1 [Compound 213]
Soybean plant response rating [1, 21]: 0 | Soybean plant response rating [1, 22]: 0 | Soybean plant response rating [1, 23]: 0 | Soybean plant response rating [1, 24]: 1 | Soybean plant response rating [1, 25]: 1 | Soybean plant response rating [1, 26]: 0 | Plant response rating (0 to 10; 0 is no effect, 10 is complete control), Soybean ([1]; Rate 250 g/ha, Postemergence): 2 | B. signalgrass plant response rating [2, 21]: 0 | B. signalgrass plant response rating [2, 22]: 0 | B. signalgrass plant response rating ([2]; Preemergence, Rate 250 g/ha, scale 0 to 10, 0 is no effect, 10 is complete control): 0 | B. signalgrass plant response rating [2, 27]: 0 | B. signalgrass plant response rating [2, 24]: 0 | B. signalgrass plant response rating ([2]; Rate 125 g/ha, Postemergence, scale 0 (no effect) to 10 (complete control)): 0 | B. signalgrass plant response rating [2, 26]: 0 | Plant response rating (0 to 10; 0 is no effect, 10 is complete control), B. signalgrass ([2]; Rate 250 g/ha, Postemergence): 2 | Ducksalad plant response rating [3, 28]: 0 | Ducksalad plant response rating [3, 29]: 0 | Wild oats plant response rating [4, 21]: 0 | Wild oats plant response rating [4, 22]: 0 | Wild oats plant response rating [4, 23]: 0 | Wild oats plant response rating [4, 24]: 0 | Wild oats plant response rating [4, 25]: 0 | Wild oats plant response rating [4, 26]: 0 | Plant response rating (0 to 10; 0 is no effect, 10 is complete control), Wild oats ([4]; Rate 250 g/ha, Postemergence): 2 | Blackgrass plant response rating [5, 21]: 0 | Blackgrass plant response rating [5, 22]: 0 | Blackgrass plant response rating [5, 23]: 0 | Blackgrass plant response rating [5, 27]: 0 | Blackgrass plant response rating [5, 24]: 0 | Blackgrass plant response rating [5, 25]: 0 | Blackgrass plant response rating [5, 26]: 0 | Plant response rating (0 to 10; 0 is no effect, 10 is complete control), Blackgrass ([5]; Rate 250 g/ha, Postemergence): 2 | Velvetleaf plant response rating [6, 21]: 0 | Velvetleaf plant response rating [6, 22]: 0 | Velvetleaf plant response rating [6, 23]: 0 | Velvetleaf plant response rating [6, 24]: 0 | Velvetleaf plant response rating [6, 25]: 0 | Velvetleaf plant response rating [6, 26]: 0 | Plant response rating (0 to 10; 0 is no effect, 10 is complete control), Velvetleaf ([6]; Rate 250 g/ha, Postemergence): 0 | Rape plant response rating [7, 21]: 0 | Rape plant response rating [7, 22]: 0 | Rape plant response rating [7, 23]: 0 | Rape plant response rating [7, 27]: 0 | Rape plant response rating [7, 24]: 0 | Rape plant response rating [7, 25]: 2 | Rape plant response rating [7, 26]: 0 | Plant response rating (0 to 10; 0 is no effect, 10 is complete control), Rape ([7]; Rate 250 g/ha, Postemergence): 3 | Morningglory plant response rating [8, 21]: 0 | Morningglory plant response rating [8, 22]: 0 | Morningglory plant response rating [8, 23]: 3 | Morningglory plant response rating [8, 27]: 5 | Morningglory plant response rating [8, 24]: 6 | Morningglory plant response rating [8, 25]: 6 | Morningglory plant response rating [8, 26]: 0 | Plant response rating (0 to 10; 0 is no effect, 10 is complete control), Morningglory ([8]; Rate 250 g/ha, Postemergence): 7 | Giant foxtail plant response rating [9, 21]: 0 | Giant foxtail plant response rating [9, 22]: 0 | Giant foxtail plant response rating [9, 23]: 4 | Giant foxtail plant response rating [9, 27]: 0 | Giant foxtail plant response rating [9, 24]: 0 | Giant foxtail plant response rating [9, 25]: 0 | Giant foxtail plant response rating [9, 26]: 2 | Plant response rating (0 to 10; 0 is no effect, 10 is complete control), Giant foxtail ([9]; Rate 250 g/ha, Postemergence): 2 | Nutsedge plant response rating [10, 22]: 0 | Nutsedge plant response rating [10, 27]: 0 | Nutsedge plant response rating [10, 24]: 0 | Nutsedge plant response rating [10, 25]: 0 | Nutsedge plant response rating [10, 26]: 0 | Plant response rating (0 to 10; 0 is no effect, 10 is complete control), Nutsedge ([10]; Rate 250 g/ha, Postemergence): 0 | Rice plant response rating [11, 28]: 0 | Rice plant response rating [11, 29]: 0 | Bedstraw plant response rating [12, 21]: 0 | Bedstraw plant response rating [12, 22]: 0 | Bedstraw plant response rating [12, 23]: 0 | Bedstraw plant response rating [12, 27]: 0 | Bedstraw plant response rating [12, 24]: 0 | Bedstraw plant response rating [12, 25]: 3 | Bedstraw plant response rating [12, 26]: 0 | Plant response rating (0 to 10; 0 is no effect, 10 is complete control), Bedstraw ([12]; Rate 250 g/ha, Postemergence): 3 | Redroot pigweed plant response rating [13, 21]: 0 | Redroot pigweed plant response rating [13, 22]: 0 | Redroot pigweed plant response rating [13, 23]: 5 | Redroot pigweed plant response rating [13, 27]: 0 | Redroot pigweed plant response rating [13, 24]: 5 | Redroot pigweed plant response rating [13, 25]: 7 | Redroot pigweed plant response rating [13, 26]: 4 | Plant response rating (0 to 10; 0 is no effect, 10 is complete control), Redroot pigweed ([13]; Rate 250 g/ha, Postemergence): 7 | Crabgrass plant response rating [14, 21]: 0 | Crabgrass plant response rating [14, 22]: 0 | Crabgrass plant response rating [14, 23]: 3 | Crabgrass plant response rating [14, 27]: 0 | Crabgrass plant response rating [14, 24]: 0 | Crabgrass plant response rating [14, 25]: 0 | Crabgrass plant response rating [14, 26]: 0 | Plant response rating (0 to 10; 0 is no effect, 10 is complete control), Crabgrass ([14]; Rate 250 g/ha, Postemergence): 2 | Barnyardgrass plant response rating [15, 28]: 0 | Barnyardgrass plant response rating [15, 29]: 0 | S. Flatsedge plant response rating [16, 28]: 0 | S. Flatsedge plant response rating [16, 29]: 0 | Corn plant response rating [17, 21]: 0 | Corn plant response rating [17, 22]: 0 | Corn plant response rating [17, 23]: 0 | Corn plant response rating [17, 27]: 0 | Corn plant response rating [17, 24]: 0 | Corn plant response rating [17, 25]: 0 | Corn plant response rating [17, 26]: 0 | Plant response rating (0 to 10; 0 is no effect, 10 is complete control), Corn ([17]; Rate 250 g/ha, Postemergence): 0 | Cocklebur plant response rating [18, 22]: 0 | Cocklebur plant response rating [18, 27]: 0 | Cocklebur plant response rating [18, 24]: 0 | Cocklebur plant response rating [18, 25]: 0 | Cocklebur plant response rating [18, 26]: 0 | Plant response rating (0 to 10; 0 is no effect, 10 is complete control), Cocklebur ([18]; Rate 250 g/ha, Postemergence): 0 | Sugarbeets plant response rating [19, 21]: 0 | Sugarbeets plant response rating [19, 22]: 0 | Sugarbeets plant response rating [19, 23]: 0 | Sugarbeets plant response rating [19, 24]: 3 | Sugarbeets plant response rating [19, 25]: 3 | Sugarbeets plant response rating [19, 26]: 0 | Plant response rating (0 to 10; 0 is no effect, 10 is complete control), Sugarbeets ([19]; Rate 250 g/ha, Postemergence): 4 | Wheat plant response rating [20, 21]: 0 | Wheat plant response rating [20, 22]: 0 | Wheat plant response rating [20, 23]: 0 | Wheat plant response rating [20, 24]: 0 | Wheat plant response rating [20, 25]: 0 | Wheat plant response rating [20, 26]: 0 | Plant response rating (0 to 10; 0 is no effect, 10 is complete control), Wheat ([20]; Rate 250 g/ha, Postemergence): 2

— US6737383B1, “Herbicidal oxadiazolidines” (priority 1999, dated 2004)
